In the NIST ThermoML archive (doi:10.1021/je400101s):

Experiment: mn = molality of the nth substance listed, in mol/kg
Details: 101 kPa, Liquid; for electrical conductivity: METLER TOLEDO SevenEasyTM conductivity meter

CCCC[P+](CC)(CCCC)CCCC.[Br-] [ethyltributylphosphonium bromide] + O
Details	electrical conductivity, 298.15 K [S/m]	electrical conductivity, 303.15 K [S/m]	electrical conductivity, 308.15 K [S/m]	mass density, 298.15 K [kg/m3]	mass density, 303.15 K [kg/m3]	mass density, 308.15 K [kg/m3]	viscosity, 298.15 K [mPa·s]	viscosity, 303.15 K [mPa·s]	viscosity, 308.15 K [mPa·s]
m1 = 0.5002	1.77	1.83	1.89	1010.54	1008.66	1006.6	1.404	1.225	1.084
m1 = 0.7497	2.04	2.14	2.21	1016.07	1013.98	1011.69	1.801	1.589	1.426
m1 = 1	2.21	2.33	2.41	1021.34	1018.99	1016.49	2.006	1.742	1.524
m1 = 1.995	2.35	2.49	2.63	1038.07	1034.94	1031.74	3.177	2.633	2.19
m1 = 3.001	2.2	2.36	2.55	1048.55	1045.08	1041.59	4.806	3.978	3.331
m1 = 4	2.03	2.21	2.42	1055.26	1051.66	1048.01	6.391	5.291	4.447
m1 = 4.997	1.87	2.05	2.25	1060.4	1056.71	1053	7.976	6.54	5.441
m1 = 5.998	1.72	1.9	2.11	1064.15	1060.43	1056.66	9.681	7.852	6.459
m1 = 6.501	1.65	1.85	2.06	1065.49	1062.17	1058.22	10.62	8.579	7.005
m1 = 6.984	1.58	1.78	1.98	1066.91	1063.18	1059.41	11.58	9.33	7.561
m1 = 8.001	–	–	–	1069.18	1065.46	1061.69	–	–	–
m1 = 8.994	–	–	–	1070.97	1067.25	1063.49	–	–	–

CCCC[P+](CCCC)(CCCC)CCCC.[Br-] [tetrabutylphosphonium bromide] + O
Details	electrical conductivity, 298.15 K [S/m]	electrical conductivity, 303.15 K [S/m]	electrical conductivity, 308.15 K [S/m]	mass density, 298.15 K [kg/m3]	mass density, 303.15 K [kg/m3]	mass density, 308.15 K [kg/m3]	viscosity, 298.15 K [mPa·s]	viscosity, 303.15 K [mPa·s]	viscosity, 308.15 K [mPa·s]
m1 = 0.4996	1.61	1.65	1.72	1008.5	1006.58	1004.44	1.483	1.282	1.142
m1 = 0.7513	1.81	1.89	1.99	1013.67	1011.4	1008.98	1.871	1.677	1.469
m1 = 0.9998	1.93	2.03	2.15	1017.95	1015.41	1012.75	2.246	1.915	1.66
m1 = 1.999	1.97	2.08	2.251	1030.09	1026.84	1023.52	3.875	3.1	2.61
m1 = 2.999	1.84	1.95	2.13	1037.03	1033.51	1029.96	5.641	4.589	3.839
m1 = 4.004	1.69	1.81	2	1041.4	1037.76	1034.07	7.374	6.059	5.037
m1 = 4.994	1.54	1.66	1.85	1044.28	1040.58	1036.87	9.03	7.403	6.085
m1 = 6.002	1.43	1.54	1.73	1046.66	1042.92	1039.15	10.65	8.71	7.101
m1 = 6.503	1.4	1.51	1.68	1047.29	1043.96	1039.91	11.46	9.333	7.618
m1 = 7.006	1.33	1.44	1.61	1048.18	1044.43	1040.68	12.29	9.946	8.17
m1 = 8	–	–	–	1049.41	1045.66	1041.87	–	–	–
m1 = 8.996	–	–	–	1050.43	1046.7	1042.93	–	–	–
